Source: patent US20110166428A1, “NOVEL METHOD FOR MEASURING INSULIN RESISTANCE” (UNIVERSITE JOSEPH FOURIER, priority 2008, published 2011)
Several values for one entry are separate records, joined by “and”; a condition that tells them apart may be missing. Equal entries are not always repeated.

Tests used:
[1] = tested on: Zucker rats (insulin resistant); assay: Sensitivity of the empirical index of glucose transport into the skeletal muscle, Rosiglitazone vs placebo; format: in vivo, rat; details: three weeks after treatment
Text: (§1) This graph represents the mean obtained during calculations of the empirical descriptor in the skeletal muscle, in the Zucker rat, with or without treatment with Rosiglitazone or with a placebo. The values of the descriptor are shown on the y-axis. The x-axis comprises 4 columns: the two on the left and the two on the right; the two on the left relate to the values observed for the rats at the start of observation before any injection, and the two on the right relate to the rats 21 days after injection. The white columns indicate rats having undergone an injection of Rosiglitazone, the black columns indicate rats having undergone an injection of a placebo.
The rat receives a first bolus of 6-DIG labelled with iodine 123 (about 250 μCi, this activity being counted in a Capintec CRC15R ionisation chamber supplied by Aries, France) in the basal condition. The activity of the 6-DIG is monitored with the gamma camera (field of view 10 cm, intrinsic resolution 1.8 mm, Biospace, France), or with the NaI probe (Scintibloc from Crismatec (Nemours, France) and ScintiSPEC, Aries) in skeletal muscle cells (quadriceps of hind paw) for 20 minutes. During these 20 minutes, the radioactivity is counted in “LIST” mode (TD. Cradduck, Computers in Nuclear Medicine, Vol. 5; No. 1, 1985, Radiographics) and analysed a posteriori […]

[2] = tested on: Zucker rats (insulin resistant); assay: Sensitivity of the theoretical index k(2,1) insulin/basal of glucose transport into the heart, Rosiglitazone vs placebo; format: in vivo, rat; details: seven days after treatment, p<0.05, FIG. 18
Text: as §1, with “theoretical index” for “empirical descriptor”, “heart,” for “skeletal muscle,”, “index” for “descriptor”, “7” for “21”
The model utilised is a three-compartment mammillary model, derived from that used to measure the kinetic parameters of transport of 3OMG, the reference tracer for glucose transport (Cobelli, 1989; Am. J. Physiol., 257, E444-E450). It makes it possible to study the biological behaviour of the tracer after injection in the rat in vivo (Slimani L. et al., CR Biol, 2002, 325(4), 529-546). The central compartment (s1) represents the plasma. […] The radioactivity measured at the level of compartments 1 and 2 is designated respectively as q1 and q2. […]
The index characterizing the rate of glucose transport into the heart was measured twice, 7 days apart, on the same animal, treated with Rosiglitazone or a placebo. […]

[3] = tested on: Zucker rats (insulin resistant); assay: Sensitivity of the empirical index of glucose transport into the heart, Rosiglitazone vs placebo; format: in vivo, rat; details: three weeks after treatment
Text: This graph represents the mean obtained during the calculations of empirical descriptor in the heart, in the Zucker rat, with or without treatment with Rosiglitazone or with a placebo. The values of the descriptor are shown on the y-axis. The x-axis comprises 4 columns: the two on the left and the two on the right; the two on the left relate to the values observed for the rats at the start of observation before any injection, and the two on the right relate to the rats 21 days after injection. The white columns indicate rats having undergone an injection of Rosiglitazone, the black columns indicate rats having undergone an injection of a placebo.
The rat receives a first bolus of 6-DIG labelled with iodine 123 (about 250 μCi, this activity being counted in a Capintec CRC15R ionisation chamber supplied by Aries, France) in the basal condition. The activity of the 6-DIG is monitored with the gamma camera (field of view 10 cm, intrinsic resolution 1.8 mm, Biospace, France) in cardiac cells for 20 minutes. During these 20 minutes, the radioactivity is counted in “LIST” mode and analysed a posteriori.
The rat then receives an injection of insulin (2.5 IU/kg), performed 5 minutes before a second injection of the tracer (about 250 μCi). The activity of the 6-DIG is again monitored with the gamma camera in cardiac cells for 20 minutes. […]

[4] = Scintigraphy of 123I-6DIG in the dog: thoracic and blood activity, fasting or under GIK; format: in vivo; details: for slope of cardiac activity measured between 2 and 5 minutes: dog heart, FIG. 8
Protocol: This graph represents on the y-axis the variations in […], for one pixel and in the quantity (in mCi) of 6DIG injected, in relation to the x-axis which represents the data acquisition time in minutes, in the heart of a dog. The measured activity is related to the number of pixels, since when a region of interest is determined on a scintigraphy image, the number of pixels in the manually selected zone is not always the same.
Two series of data are shown; a first series of measurements indicated by linked squares represents the data recorded for a fasting animal. A second series of data, indicated by linked circles, represents the data recorded for an animal perfused with a GIK solution (Glucose/Insulin/potassium).
Animals: male beagle dogs aged about 1 year, weighing between 15 and 20 kg and fed with a standard diet Jape 21 (Ets L. Pietrement).
The dogs, premedicated with an intramuscular injection of ketamine (10 mg/kg), are anaesthetised by means of an intravenous injection of sodium thiopental (25 mg/kg). The animals are intubated and ventilated throughout the experiment and kept asleep with halothane in the ventilation circuit (oxygen-enriched air).
6DIG (20 μmol) labelled with iodine 123 (about 4 mCi) is injected intravenously. The scintigraphy images are acquired by means of a standard gamma camera equipped with a high resolution collimator and the […] is set at 160 keV with a 20% window. The variation in the thoracic radioactivity (heart, lungs and liver) with time is measured for 30 minutes post-injection, at the rate of one image per minute. The change in the blood activity is obtained by taking blood samples (1, 2, 3, 4, 5, 10. 15, 20 and 30 min p.i.) and the measurement of the radioactivity by means of a gamma counter (Packard).
Two protocols were followed, the first was implemented in fasting animals (withdrawal of food the night before the experiment, n=1) and the second was implemented in animals perfused with a GIK (Glucose/Insulin/Potassium) solution containing in particular insulin (30% glucose, 4 g/l of KCl and 80 IU/kg of insulin, n=2) and maintained throughout the experiment.

slope of cardiac activity measured between 2 and 5 minutes ([4]; fasting)	slope of cardiac activity measured between 2 and 5 minutes ([4]; under GIK perfusion)	blood activity ([4]; dog, i.v., blood samples, gamma counter)	Structure (SMILES)	empirical descriptor (empirical index of rate of glucose transport into the skeletal muscle) vs rats treated with placebo ([1]; p=0.005, FIG. 16)	empirical descriptor (empirical index of rate of glucose transport into the skeletal muscle) vs same rats before treatment ([1]; p=0.021, FIG. 16)	index characterizing the rate of glucose transport into the heart (theoretical index) vs rats treated with placebo [2]	empirical descriptor (empirical index of rate of glucose transport into the heart) vs rats treated with placebo ([3]; p=0.006, FIG. 12)	empirical descriptor (empirical index of rate of glucose transport into the heart) vs same rats before treatment ([3]; p=0.033, FIG. 12)	pulmonary activity ([4]; dog, i.v., gamma camera)	activity in the liver ([4]; dog, i.v., gamma camera, 30 minutes post-injection)
–	–	–	CN(CCOc1ccc(CC2SC(=O)NC2=O)cc1)c1ccccn1 (racemic) [Rosiglitazone, (±)-5-[[4-[2-(methyl-2-pyridinylamino)ethoxy]phenyl]methyl]-2,4-thiazolidinedione]	significantly greater	significantly greater	significantly greater	significantly greater	significantly greater	–	–
0.013	0.044 and 0.022	decreases very rapidly	O=C[C@H](O)[C@@H](O)[C@H](O)[C@H](O)CI [6DIG, 6-Deoxy-6-Iodo-D-Glucose]	–	–	–	–	–	low and comparable to the background noise	greatest in the liver at 5 minutes but decreases rapidly
